Laboratory results from the supplement of paper PMC11451515.

Experiments:
Settings in all cases: 48 h
SEM cells [1] = assay: cell viability relative to DMSO control; higher = less cytotoxic
Method in brief: (§1)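 Leukemia cells (NOMO1 or SEM, 500 cells/well; P12-Ichikawa, 1000 cells/well) were seeded in 5 μl in 1536-well plates after at least four passages of adaptation to each medium. They received library compounds in DMSO by pin dosing, 11 threefold points from 47 μM to 0.79 nM. Luminescence with CellTiter-Glo One was read after 48 h at 37°C. Viability is stated per plate relative to DMSO wells, with cell-free wells as background.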

NOMO1 [2] = assay: as above
Method in brief: as §1

P12-Ichikawa [3] = assay: as above
Method in brief: as §1

SEM cells [4] = assay: AUC of viability dose-response curve (% viability x log10 dose units); higher = less sensitive
Method in brief: (§2)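 Seeding of medium-adapted leukemia cells was at 500 or 1000 cells/well in 1536-well plates, followed by 48 h at 37°C with library compounds in DMSO at 11 threefold doses from 47 μM to 0.79 nM. CellTiter-Glo One luminescence was normalised per plate to DMSO and cell-free wells and fitted as a four-parameter log-logistic function of log10 dose. Area under the curve was integrated by trapezoidal rule, with curves exceeding full viability scaled and curves failing quality control removed.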

NOMO1 [5] = assay: as above
Method in brief: as §2

P12-Ichikawa [6] = assay: as above
Method in brief: as §2

Clc1ccc(C(c2ccc(Cl)cc2)[n+]2ccn(CC(OCc3ccc(Cl)cc3Cl)c3ccc(Cl)cc3Cl)c2)cc1 (stereo not given)
cell viability [%]
Settings | NOMO1 [2] | P12-Ichikawa [3] | SEM cells [1]
HPLM + 10% dialyzed FBS, 0.000781 µM | 108 | 115 | 108
HPLM + 10% dialyzed FBS, 0.00234 µM | 99 | 112 | 121
HPLM + 10% dialyzed FBS, 0.00702 µM | 113 | 109 | 107
HPLM + 10% dialyzed FBS, 0.0211 µM | 110 | 104 | 105
HPLM + 10% dialyzed FBS, 0.0632 µM | 107 | 113 | 117
HPLM + 10% dialyzed FBS, 0.19 µM | 107 | 117 | 112
HPLM + 10% dialyzed FBS, 0.569 µM | 115 | 110 | 108
HPLM + 10% dialyzed FBS, 1.71 µM | 102 | 98.1 | 117
HPLM + 10% dialyzed FBS, 5.12 µM | 101 | 102 | 117
HPLM + 10% dialyzed FBS, 15.4 µM | 81.2 | 70.6 | 61
HPLM + 10% dialyzed FBS, 46.1 µM | 3.86 | 47.1 | 5.22
RPMI 5 mM glucose + 10% FBS, 0.000781 µM | 94.6 | 129 | 109
RPMI 5 mM glucose + 10% FBS, 0.00234 µM | 100 | 113 | 111
RPMI 5 mM glucose + 10% FBS, 0.00702 µM | 105 | 115 | 117
RPMI 5 mM glucose + 10% FBS, 0.0211 µM | 94.7 | 110 | 120
RPMI 5 mM glucose + 10% FBS, 0.0632 µM | 119 | 115 | 132
RPMI 5 mM glucose + 10% FBS, 0.19 µM | 113 | 115 | 127
RPMI 5 mM glucose + 10% FBS, 0.569 µM | 91 | 113 | 124
RPMI 5 mM glucose + 10% FBS, 1.71 µM | 103 | 100 | 111
RPMI 5 mM glucose + 10% FBS, 5.12 µM | 102 | 105 | 106
RPMI 5 mM glucose + 10% FBS, 15.4 µM | 74.3 | 70.2 | 37.7
RPMI 5 mM glucose + 10% FBS, 46.1 µM | 3.56 | 21 | 1.63
RPMI 5 mM glucose + 10% dialyzed FBS, 0.000781 µM | 105 | – | 112
RPMI 5 mM glucose + 10% dialyzed FBS, 0.00234 µM | 105 | – | 117
RPMI 5 mM glucose + 10% dialyzed FBS, 0.00702 µM | 118 | – | 118
RPMI 5 mM glucose + 10% dialyzed FBS, 0.0211 µM | 114 | – | 109
RPMI 5 mM glucose + 10% dialyzed FBS, 0.0632 µM | 112 | – | 108
RPMI 5 mM glucose + 10% dialyzed FBS, 0.19 µM | 107 | – | 123
RPMI 5 mM glucose + 10% dialyzed FBS, 0.569 µM | 98.5 | – | 124
RPMI 5 mM glucose + 10% dialyzed FBS, 1.71 µM | 91.3 | – | 115
RPMI 5 mM glucose + 10% dialyzed FBS, 5.12 µM | 90.4 | – | 125
RPMI 5 mM glucose + 10% dialyzed FBS, 15.4 µM | 83 | – | 83.3
RPMI 5 mM glucose + 10% dialyzed FBS, 46.1 µM | 2.5 | – | 3.06

AUC of viability dose-response curve
Settings | NOMO1 [5] | P12-Ichikawa [6] | SEM cells [4]
HPLM + 10% dialyzed FBS | 441 | 438 | 432
RPMI 5 mM glucose + 10% FBS | 441 | 432 | 415
RPMI 5 mM glucose + 10% dialyzed FBS | 440 | 444 | 440

COC(=O)[C@H](Cc1ccccc1)NC(=O)[C@@H](N)CC(=O)O
cell viability [%]
Settings | NOMO1 [2] | P12-Ichikawa [3] | SEM cells [1]
HPLM + 10% dialyzed FBS, 0.000781 µM | 110 | 112 | 128
HPLM + 10% dialyzed FBS, 0.00234 µM | 124 | 119 | 106
HPLM + 10% dialyzed FBS, 0.00702 µM | 116 | 120 | 111
HPLM + 10% dialyzed FBS, 0.0211 µM | 112 | 115 | 103
HPLM + 10% dialyzed FBS, 0.0632 µM | 128 | 119 | 130
HPLM + 10% dialyzed FBS, 0.19 µM | 115 | 108 | 110
HPLM + 10% dialyzed FBS, 0.569 µM | 113 | 112 | 126
HPLM + 10% dialyzed FBS, 1.71 µM | 112 | 112 | 119
HPLM + 10% dialyzed FBS, 5.12 µM | 93.6 | 106 | 103
HPLM + 10% dialyzed FBS, 15.4 µM | 96.1 | 101 | 120
HPLM + 10% dialyzed FBS, 46.1 µM | 94.9 | 100 | 116
RPMI 5 mM glucose + 10% FBS, 0.000781 µM | 108 | 110 | 125
RPMI 5 mM glucose + 10% FBS, 0.00234 µM | 121 | 110 | 98.5
RPMI 5 mM glucose + 10% FBS, 0.00702 µM | 125 | 113 | 121
RPMI 5 mM glucose + 10% FBS, 0.0211 µM | 122 | 119 | 112
RPMI 5 mM glucose + 10% FBS, 0.0632 µM | 110 | 115 | 122
RPMI 5 mM glucose + 10% FBS, 0.19 µM | 126 | 125 | 118
RPMI 5 mM glucose + 10% FBS, 0.569 µM | 115 | 107 | 128
RPMI 5 mM glucose + 10% FBS, 1.71 µM | 107 | 109 | 119
RPMI 5 mM glucose + 10% FBS, 5.12 µM | 112 | 102 | 100
RPMI 5 mM glucose + 10% FBS, 15.4 µM | 105 | 102 | 123
RPMI 5 mM glucose + 10% FBS, 46.1 µM | 108 | 108 | 116
RPMI 5 mM glucose + 10% dialyzed FBS, 0.000781 µM | 126 | 114 | 124
RPMI 5 mM glucose + 10% dialyzed FBS, 0.00234 µM | 117 | 109 | 106
RPMI 5 mM glucose + 10% dialyzed FBS, 0.00702 µM | 120 | 125 | 104
RPMI 5 mM glucose + 10% dialyzed FBS, 0.0211 µM | 112 | 112 | 107
RPMI 5 mM glucose + 10% dialyzed FBS, 0.0632 µM | 112 | 120 | 123
RPMI 5 mM glucose + 10% dialyzed FBS, 0.19 µM | 125 | 110 | 122
RPMI 5 mM glucose + 10% dialyzed FBS, 0.569 µM | 106 | 112 | 111
RPMI 5 mM glucose + 10% dialyzed FBS, 1.71 µM | 122 | 110 | 116
RPMI 5 mM glucose + 10% dialyzed FBS, 5.12 µM | 70.4 | 107 | 98.3
RPMI 5 mM glucose + 10% dialyzed FBS, 15.4 µM | 116 | 104 | 110
RPMI 5 mM glucose + 10% dialyzed FBS, 46.1 µM | 108 | 101 | 104

AUC of viability dose-response curve
Settings | NOMO1 [5] | P12-Ichikawa [6] | SEM cells [4]
HPLM + 10% dialyzed FBS | 453 | 454 | 476
RPMI 5 mM glucose + 10% FBS | 461 | 459 | 472
RPMI 5 mM glucose + 10% dialyzed FBS | 437 | 458 | 467
